Experimental data as given in PubChem BioAssay AID2060511 (Molecular Pharmacology Branch, DTP, NCI, 2025).

Tested on: 422866-222-R5-J1-PDC spheroids with HUVEC/MSC, viability
Assay: Anticancer human tumor 422866-222-R5-J1-PDC patient-derived pancreatic adenocarcinoma cell line growth inhibition [GQUAD]
Conditions: for IC50: curve of first compound; for viability, T/C: stronger effect = lower value
Procedure, shortened: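 Multi-cell-type spheroids of tumor cells with HUVEC and mesenchymal stem cells, treated with drug combinations. Concentrations descend in half-log steps from near clinical Cmax, or from 10 microM where Cmax is unknown; viability read-out.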

[1] = second compound 0.0316 µM, first compound 0.0316 µM
[2] = second compound 0.0316 µM, first compound 0.1 µM
[3] = second compound 0.0316 µM, first compound 0.316 µM
[4] = second compound 0.0316 µM, first compound 1 µM
[5] = second compound 0.0316 µM, first compound 3.16 µM
[6] = second compound 0.0316 µM, first compound 10 µM
[7] = second compound 0.1 µM, first compound 0.0316 µM
[8] = second compound 0.1 µM, first compound 0.1 µM
[9] = second compound 0.1 µM, first compound 0.316 µM
[10] = second compound 0.1 µM, first compound 1 µM
[11] = second compound 0.1 µM, first compound 3.16 µM
[12] = second compound 0.1 µM, first compound 10 µM
[13] = second compound 0.316 µM, first compound 0.0316 µM
[14] = second compound 0.316 µM, first compound 0.1 µM
[15] = second compound 0.316 µM, first compound 0.316 µM
[16] = second compound 0.316 µM, first compound 1 µM
[17] = second compound 0.316 µM, first compound 3.16 µM
[18] = second compound 0.316 µM, first compound 10 µM
[19] = second compound 1 µM, first compound 0.0316 µM
[20] = second compound 1 µM, first compound 0.1 µM
[21] = second compound 1 µM, first compound 0.316 µM
[22] = second compound 1 µM, first compound 1 µM
[23] = second compound 1 µM, first compound 3.16 µM
[24] = second compound 1 µM, first compound 10 µM
[25] = second compound 3.16 µM, first compound 0.0316 µM
[26] = second compound 3.16 µM, first compound 0.1 µM
[27] = second compound 3.16 µM, first compound 0.316 µM
[28] = second compound 3.16 µM, first compound 1 µM
[29] = second compound 3.16 µM, first compound 3.16 µM
[30] = second compound 3.16 µM, first compound 10 µM
[31] = second compound 10 µM, first compound 0.0316 µM
[32] = second compound 10 µM, first compound 0.1 µM
[33] = second compound 10 µM, first compound 0.316 µM
[34] = second compound 10 µM, first compound 1 µM
[35] = second compound 10 µM, first compound 3.16 µM
[36] = second compound 10 µM, first compound 10 µM
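Also: spheroids exposed to compounds for seven days before reading.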
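For viability, T/C in this document: percent viability relative to DMSO vehicle control taken as 100%.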

## Nc1ccn(C2OC(CO)C(O)C2(F)F)c(=O)n1 (centres undefined) + Cc1[nH]c2ccc(F)cc2c1-c1nc2c3cccnc3c3ncccc3c2[nH]1
Second compound 0.0316 µM
  IC50: 800 nM
Second compound 0.1 µM
  IC50: 427 nM
Second compound 0.316 µM
  IC50: 1200 nM
Second compound 1 µM
  IC50: 504 nM
Second compound 3.16 µM
  IC50: 347 nM
Second compound 10 µM
  IC50: 490 nM
[1]
  viability, T/C: 85.1%
[2]
  viability, T/C: 75.8%
[3]
  viability, T/C: 63.3%
[4]
  viability, T/C: 46%
[5]
  viability, T/C: 41.1%
[6]
  viability, T/C: 41.8%
[7]
  viability, T/C: 83.8%
[8]
  viability, T/C: 82.2%
[9]
  viability, T/C: 52.5%
[10]
  viability, T/C: 42.2%
[11]
  viability, T/C: 43.7%
[12]
  viability, T/C: 42.5%
[13]
  viability, T/C: 97.8%
[14]
  viability, T/C: 80.9%
[15]
  viability, T/C: 67.8%
[16]
  viability, T/C: 49.9%
[17]
  viability, T/C: 42%
[18]
  viability, T/C: 35.2%
[19]
  viability, T/C: 91.5%
[20]
  viability, T/C: 75.9%
[21]
  viability, T/C: 53.2%
[22]
  viability, T/C: 45.1%
[23]
  viability, T/C: 45.2%
[24]
  viability, T/C: 43.3%
[25]
  viability, T/C: 83.4%
[26]
  viability, T/C: 62.3%
[27]
  viability, T/C: 52.6%
[28]
  viability, T/C: 42.3%
[29]
  viability, T/C: 42.2%
[30]
  viability, T/C: 42.9%
[31]
  viability, T/C: 72.3%
[32]
  viability, T/C: 67.6%
[33]
  viability, T/C: 55.4%
[34]
  viability, T/C: 39.9%
[35]
  viability, T/C: 43%
[36]
  viability, T/C: 41.2%

## COc1ccc([C@@H](O)c2cc(-c3ncnc4cc(N5CCOCC5)ccc34)c(F)cc2Cl)nn1 + Cc1cnc(CNC(=O)c2c(=O)c3ccc(N4CCCN(C)CC4)nc3n3c2sc2ccccc23)cn1
Second compound 0.0316 µM
  IC50: 1390 nM
Second compound 0.1 µM
  IC50: 2050 nM
Second compound 0.316 µM
  IC50: 3660 nM
Second compound 1 µM
  IC50: 2360 nM
Second compound 3.16 µM
  IC50: 1940 nM
Second compound 10 µM
  IC50: 1800 nM
[1]
  viability, T/C: 106%
[2]
  viability, T/C: 82.7%
[3]
  viability, T/C: 78.8%
[4]
  viability, T/C: 47.9%
[5]
  viability, T/C: 41.9%
[6]
  viability, T/C: 35.5%
[7]
  viability, T/C: 94.8%
[8]
  viability, T/C: 87.4%
[9]
  viability, T/C: 68.5%
[10]
  viability, T/C: 57.1%
[11]
  viability, T/C: 47.2%
[12]
  viability, T/C: 39.3%
[13]
  viability, T/C: 97.3%
[14]
  viability, T/C: 85.3%
[15]
  viability, T/C: 72.8%
[16]
  viability, T/C: 60.2%
[17]
  viability, T/C: 54%
[18]
  viability, T/C: 40.4%
[19]
  viability, T/C: 97.3%
[20]
  viability, T/C: 87.4%
[21]
  viability, T/C: 83.4%
[22]
  viability, T/C: 62.8%
[23]
  viability, T/C: 45.1%
[24]
  viability, T/C: 35.5%
[25]
  viability, T/C: 90.9%
[26]
  viability, T/C: 80.1%
[27]
  viability, T/C: 78.5%
[28]
  viability, T/C: 57.6%
[29]
  viability, T/C: 43.6%
[30]
  viability, T/C: 34%
[31]
  viability, T/C: 81.9%
[32]
  viability, T/C: 78%
[33]
  viability, T/C: 70.3%
[34]
  viability, T/C: 55.9%
[35]
  viability, T/C: 44.1%
[36]
  viability, T/C: 31.6%
